Source: patent publication US12691112B2, “FGFR tyrosine kinase inhibitors for the treatment of urothelial carcinoma” (Janssen Pharmaceutica NV, priority 2019, dated 2026)
Read-outs that look alike come from different tables or passages of the source.

Test system: subjects with metastatic or surgically unresectable urothelial cancer
Settings: all-causality

COc1cc(OC)cc(N(CCNC(C)C)c2ccc3ncc(-c4cnn(C)c4)nc3c2)c1 [erdafitinib, N-(3,5-dimethoxy-phenyl)-N′-(1-methylethyl)-N-[3-(1-methyl-1H-pyrazol-4-yl)quinoxalin-6-yl]ethane-1,2-diamine]
Conjunctivitis, grade ≥ 3 (6 mg continuous, n = 78): 1 no.
Constipation, any grade (6 mg continuous, n = 78): 20 no.
Constipation, grade 1 (6 mg continuous, n = 78): 10 no.
Constipation, grade 2 (6 mg continuous, n = 78): 10 no.
Constipation, grade ≥ 3 (6 mg continuous, n = 78): 0 no.
Decreased appetite, any grade (6 mg continuous, n = 78): 29 no.
Decreased appetite, grade 1 (6 mg continuous, n = 78): 12 no.
Decreased appetite, grade 2 (6 mg continuous, n = 78): 13 no.
Decreased appetite, grade ≥ 3 (6 mg continuous, n = 78): 4 no.
Diarrhea, any grade (6 mg continuous, n = 78): 39 no.
Diarrhea, grade 1 (6 mg continuous, n = 78): 24 no.
Diarrhea, grade 2 (6 mg continuous, n = 78): 15 no.
Diarrhea, grade ≥ 3 (6 mg continuous, n = 78): 0 no.
Dry eye, any grade (6 mg continuous, n = 78): 6 no.
Dry eye, grade 1 (6 mg continuous, n = 78): 3 no.
Dry eye, grade 2 (6 mg continuous, n = 78): 2 no.
Dry eye, grade ≥ 3 (6 mg continuous, n = 78): 1 no.
Dry mouth, any grade (6 mg continuous, n = 78): 31 no.
Dry mouth, grade 1 (6 mg continuous, n = 78): 23 no.
Dry mouth, grade 2 (6 mg continuous, n = 78): 6 no.
Dry mouth, grade ≥ 3 (6 mg continuous, n = 78): 2 no.
Dry skin, any grade (6 mg continuous, n = 78): 18 no.
Dry skin, grade 1 (6 mg continuous, n = 78): 10 no.
Dry skin, grade 2 (6 mg continuous, n = 78): 8 no.
Dry skin, grade ≥ 3 (6 mg continuous, n = 78): 0 no.
Dysgeusia, any grade (6 mg continuous, n = 78): 10 no.
Dysgeusia, grade 1 (6 mg continuous, n = 78): 6 no.
Dysgeusia, grade 2 (6 mg continuous, n = 78): 4 no.
Dysgeusia, grade ≥ 3 (6 mg continuous, n = 78): 0 no.
Dyspepsia, any grade (6 mg continuous, n = 78): 9 no.
Dyspepsia, grade 1 (6 mg continuous, n = 78): 6 no.
Dyspepsia, grade 2 (6 mg continuous, n = 78): 3 no.
Dyspepsia, grade ≥ 3 (6 mg continuous, n = 78): 0 no.
Dyspnea, any grade (6 mg continuous, n = 78): 6 no.
Dyspnea, grade 1 (6 mg continuous, n = 78): 1 no.
Dyspnea, grade 2 (6 mg continuous, n = 78): 3 no.
Dyspnea, grade ≥ 3 (6 mg continuous, n = 78): 2 no.
Fatigue, any grade (6 mg continuous, n = 78): 20 no.
Fatigue, grade 1 (6 mg continuous, n = 78): 8 no.
Fatigue, grade 2 (6 mg continuous, n = 78): 8 no.
Fatigue, grade ≥ 3 (6 mg continuous, n = 78): 4 no.
Hand-foot syndrome, any grade (6 mg continuous, n = 78): 13 no.
Hand-foot syndrome, grade 1 (6 mg continuous, n = 78): 4 no.
Hand-foot syndrome, grade 2 (6 mg continuous, n = 78): 9 no.
Hand-foot syndrome, grade ≥ 3 (6 mg continuous, n = 78): 0 no.
Hematuria, any grade (6 mg continuous, n = 78): 6 no.
Hematuria, grade 1 (6 mg continuous, n = 78): 5 no.
Hematuria, grade 2 (6 mg continuous, n = 78): 0 no.
Hematuria, grade ≥ 3 (6 mg continuous, n = 78): 1 no.
Hyperphosphatemia, any grade (6 mg continuous, n = 78): 52 no.
Hyperphosphatemia, grade 1 (6 mg continuous, n = 78): 44 no.
Hyperphosphatemia, grade 2 (6 mg continuous, n = 78): 8 no.
Hyperphosphatemia, grade ≥ 3 (6 mg continuous, n = 78): 0 no.
Hypomagnesemia, any grade (6 mg continuous, n = 78): 6 no.
Hypomagnesemia, grade 1 (6 mg continuous, n = 78): 6 no.
Hypomagnesemia, grade 2 (6 mg continuous, n = 78): 0 no.
Hypomagnesemia, grade ≥ 3 (6 mg continuous, n = 78): 0 no.
Hyponatremia, any grade (6 mg continuous, n = 78): 7 no.
Hyponatremia, grade 1 (6 mg continuous, n = 78): 2 no.
Hyponatremia, grade 2 (6 mg continuous, n = 78): 0 no.
Hyponatremia, grade ≥ 3 (6 mg continuous, n = 78): 5 no.
Insomnia, any grade (6 mg continuous, n = 78): 8 no.
Insomnia, grade 1 (6 mg continuous, n = 78): 4 no.
Insomnia, grade 2 (6 mg continuous, n = 78): 2 no.
Insomnia, grade ≥ 3 (6 mg continuous, n = 78): 2 no.
Lacrimation increased, any grade (6 mg continuous, n = 78): 13 no.
Lacrimation increased, grade 1 (6 mg continuous, n = 78): 10 no.
Lacrimation increased, grade 2 (6 mg continuous, n = 78): 3 no.
Lacrimation increased, grade ≥ 3 (6 mg continuous, n = 78): 0 no.
Nail dystrophy, any grade (6 mg continuous, n = 78): 7 no.
Nail dystrophy, grade 1 (6 mg continuous, n = 78): 6 no.
Nail dystrophy, grade 2 (6 mg continuous, n = 78): 1 no.
Nail dystrophy, grade ≥ 3 (6 mg continuous, n = 78): 0 no.
Nausea, any grade (6 mg continuous, n = 78): 16 no.
Nausea, grade 1 (6 mg continuous, n = 78): 11 no.
Nausea, grade 2 (6 mg continuous, n = 78): 4 no.
Nausea, grade ≥ 3 (6 mg continuous, n = 78): 1 no.
Onycholysis, any grade (6 mg continuous, n = 78): 13 no.
Onycholysis, grade 1 (6 mg continuous, n = 78): 2 no.
Onycholysis, grade 2 (6 mg continuous, n = 78): 6 no.
Onycholysis, grade ≥ 3 (6 mg continuous, n = 78): 5 no.
Onychomadesis, any grade (6 mg continuous, n = 78): 8 no.
Onychomadesis, grade 1 (6 mg continuous, n = 78): 2 no.
Onychomadesis, grade 2 (6 mg continuous, n = 78): 6 no.
Onychomadesis, grade ≥ 3 (6 mg continuous, n = 78): 0 no.
Oropharyngeal pain, any grade (6 mg continuous, n = 78): 8 no.
Oropharyngeal pain, grade 1 (6 mg continuous, n = 78): 5 no.
Oropharyngeal pain, grade 2 (6 mg continuous, n = 78): 3 no.
Oropharyngeal pain, grade ≥ 3 (6 mg continuous, n = 78): 0 no.
Pain in extremity, any grade (6 mg continuous, n = 78): 9 no.
Pain in extremity, grade 1 (6 mg continuous, n = 78): 2 no.
Pain in extremity, grade 2 (6 mg continuous, n = 78): 6 no.
Pain in extremity, grade ≥ 3 (6 mg continuous, n = 78): 1 no.
Paronychia, any grade (6 mg continuous, n = 78): 12 no.
Paronychia, grade 1 (6 mg continuous, n = 78): 2 no.
Paronychia, grade 2 (6 mg continuous, n = 78): 10 no.
Paronychia, grade ≥ 3 (6 mg continuous, n = 78): 0 no.
Peripheral edema, any grade (6 mg continuous, n = 78): 6 no.
Peripheral edema, grade 1 (6 mg continuous, n = 78): 2 no.
Peripheral edema, grade 2 (6 mg continuous, n = 78): 3 no.
Peripheral edema, grade ≥ 3 (6 mg continuous, n = 78): 1 no.
Pyrexia, any grade (6 mg continuous, n = 78): 14 no.
Pyrexia, grade 1 (6 mg continuous, n = 78): 8 no.
Pyrexia, grade 2 (6 mg continuous, n = 78): 3 no.
Pyrexia, grade ≥ 3 (6 mg continuous, n = 78): 3 no.
Retinal detachment, any grade (6 mg continuous, n = 78): 8 no.
Retinal detachment, grade 1 (6 mg continuous, n = 78): 5 no.
Retinal detachment, grade 2 (6 mg continuous, n = 78): 3 no.
Retinal detachment, grade ≥ 3 (6 mg continuous, n = 78): 0 no.
Stomatitis, any grade (6 mg continuous, n = 78): 33 no.
Stomatitis, grade 1 (6 mg continuous, n = 78): 13 no.
Stomatitis, grade 2 (6 mg continuous, n = 78): 13 no.
Stomatitis, grade ≥ 3 (6 mg continuous, n = 78): 7 no.
Urinary tract infection, any grade (6 mg continuous, n = 78): 13 no.
Urinary tract infection, grade 1 (6 mg continuous, n = 78): 0 no.
Urinary tract infection, grade 2 (6 mg continuous, n = 78): 9 no.
Urinary tract infection, grade ≥ 3 (6 mg continuous, n = 78): 4 no.
Vision blurred, any grade (6 mg continuous, n = 78): 5 no.
Vision blurred, grade 1 (6 mg continuous, n = 78): 3 no.
Vision blurred, grade 2 (6 mg continuous, n = 78): 1 no.
Vision blurred, grade ≥ 3 (6 mg continuous, n = 78): 1 no.
Vomiting, any grade (6 mg continuous, n = 78): 11 no.
Vomiting, grade 1 (6 mg continuous, n = 78): 9 no.
Vomiting, grade 2 (6 mg continuous, n = 78): 2 no.
Vomiting, grade ≥ 3 (6 mg continuous, n = 78): 0 no.
Weight decreased, any grade (6 mg continuous, n = 78): 8 no.
Weight decreased, grade 1 (6 mg continuous, n = 78): 4 no.
Weight decreased, grade 2 (6 mg continuous, n = 78): 2 no.
Weight decreased, grade ≥ 3 (6 mg continuous, n = 78): 2 no.
Abdominal pain, any grade (8 mg continuous, n = 99): 8 no.
Abdominal pain, grade 1 (8 mg continuous, n = 99): 5 no.
Abdominal pain, grade 2 (8 mg continuous, n = 99): 2 no.
Abdominal pain, grade ≥ 3 (8 mg continuous, n = 99): 1 no.
Alanine aminotransferase increased, any grade (8 mg continuous, n = 99): 17 no.
Alanine aminotransferase increased, grade 1 (8 mg continuous, n = 99): 13 no.
Alanine aminotransferase increased, grade 2 (8 mg continuous, n = 99): 2 no.
Alanine aminotransferase increased, grade ≥ 3 (8 mg continuous, n = 99): 2 no.
Alopecia, any grade (8 mg continuous, n = 99): 29 no.
Alopecia, grade 1 (8 mg continuous, n = 99): 23 no.
Alopecia, grade 2 (8 mg continuous, n = 99): 6 no.
Alopecia, grade ≥ 3 (8 mg continuous, n = 99): 0 no.
Anemia, any grade (8 mg continuous, n = 99): 20 no.
Anemia, grade 1 (8 mg continuous, n = 99): 9 no.
Anemia, grade 2 (8 mg continuous, n = 99): 7 no.
Anemia, grade ≥ 3 (8 mg continuous, n = 99): 4 no.
Arthralgia, any grade (8 mg continuous, n = 99): 8 no.
Arthralgia, grade 1 (8 mg continuous, n = 99): 5 no.
Arthralgia, grade 2 (8 mg continuous, n = 99): 3 no.
Arthralgia, grade ≥ 3 (8 mg continuous, n = 99): 0 no.
Aspartate aminotransferase increased, any grade (8 mg continuous, n = 99): 10 no.
Aspartate aminotransferase increased, grade 1 (8 mg continuous, n = 99): 8 no.
Aspartate aminotransferase increased, grade 2 (8 mg continuous, n = 99): 2 no.
Aspartate aminotransferase increased, grade ≥ 3 (8 mg continuous, n = 99): 0 no.
Asthenia, any grade (8 mg continuous, n = 99): 20 no.
Asthenia, grade 1 (8 mg continuous, n = 99): 2 no.
Asthenia, grade 2 (8 mg continuous, n = 99): 11 no.
Asthenia, grade ≥ 3 (8 mg continuous, n = 99): 7 no.
Back pain, any grade (8 mg continuous, n = 99): 5 no.
Back pain, grade 1 (8 mg continuous, n = 99): 4 no.
Back pain, grade 2 (8 mg continuous, n = 99): 1 no.
Back pain, grade ≥ 3 (8 mg continuous, n = 99): 0 no.
Blood creatinine increased, any grade (8 mg continuous, n = 99): 10 no.
Blood creatinine increased, grade 1 (8 mg continuous, n = 99): 5 no.
Blood creatinine increased, grade 2 (8 mg continuous, n = 99): 5 no.
Blood creatinine increased, grade ≥ 3 (8 mg continuous, n = 99): 0 no.
Conjunctivitis, any grade (8 mg continuous, n = 99): 13 no.
Conjunctivitis, grade 1 (8 mg continuous, n = 99): 6 no.
Conjunctivitis, grade 2 (8 mg continuous, n = 99): 7 no.
Conjunctivitis, grade ≥ 3 (8 mg continuous, n = 99): 0 no.
Constipation, any grade (8 mg continuous, n = 99): 28 no.
Constipation, grade 1 (8 mg continuous, n = 99): 19 no.
Constipation, grade 2 (8 mg continuous, n = 99): 8 no.
